For data set [1], the system named is individuals with NT1. The conditions noted are these: initial clinical studies; cited from earlier work.
The subject of data set [2] is mouse models of narcolepsy type 1 / WT mice. The conditions noted are these: cited from earlier work.
For data set [3] the following is noted: amide bond, 12-membered ring, HATU/DIEA, DMF.

Read-outs that look alike come from different tables or passages of the source.

With `COC(=O)N1CCC[C@H](NS(C)(=O)=O)[C@@H]1CO[C@H]1CC[C@@H](c2ccccc2)CC1` [TAK-925], the cataplexy result in data set [1] is given as “trends for decreasing cataplexy”. The wakefulness entry in data set [1] is recorded as “substantial levels of increased wakefulness”; in data set [2] (subcutaneous administration, OX2R-knockout mice), “not”; in data set [2] (subcutaneous administration, WT mice) it was “modestly increased wakefulness”. In data set [3] (2.24 mM, 25.0 °C), “N-((4^2,4^3S)-5-oxo-8-oxa-4(2,1)-piperidina-1(1,2),2(1.3)-dibenzenacyclo-octaphane-4^3-yl)ethanesulfonamide” came in with a ring closure, yield after HPLC of 29.4%. On to “N-((4^2S,4^3S)-5-oxo-8-oxa-4(2,1)-piperidina-1(1,2),2(1,3)-dibenzenacyclo-octaphane-4^3-yl)methanesulfonamide”, for which the ring closure, yield after HPLC in data set [3] (2.31 mM, 25.0 °C) was found to be 23.4%. Turning to `COc1ccc(-c2cccc(C(=O)N(C)C)c2)cc1S(=O)(=O)Nc1cccc(NCCNC(=O)c2ccccc2N(C)C)c1` [YNT-185], the “sleep-onset REM periods and cataplexy-like events” value in data set [2] (intraperitoneally or ICV, NT1 mouse model) was “decrease sleep-onset REM periods and cataplexy-like events”. Moreover, the wakefulness result in data set [2] (intraperitoneally or ICV, wild type (WT) and orexin ligand-deficient mice) is “modestly increases wakefulness”. Consider `CN(C)S(=O)(=O)NC1CCCN2C(=O)CCOc3ccccc3-c3cccc(c3)CC12` (stereo not drawn), for which the ring closure, yield after HPLC in data set [3] (from CN(C)S(=O)(=O)NC1CCCNC1Cc1cccc(-c2ccccc2OCCC(=O)O)c1, 0.4 mM, 20.0 °C, 12.0 h) is 29.9%.

The values are drawn from patent US20230331720A1, “MEDIUM- OR MACRO-CYCLIC BENZYL-SUBSTITUTED HETEROCYCLE DERIVATIVES AND THEIR USES AS OREXIN-2 RECEPTOR AGONISTS” (Orexia Therapeutics Limited, priority 2020, published 2023).
